Results as given in paper PMC11459959, “Discovery of new acetamide derivatives of 5-indole-1,3,4-oxadiazol-2-thiol as inhibitors of HIV-1 Tat-mediated viral transcription” (Antimicrobial Agents and Chemotherapy, 2024).

Assays:
[1] = tested on: HIV-1NL4-3 IRES-eGFP-nef+; test: eGFP-encoding HIV-1 infection of TZM-bl cells; assay type: cell-based; details: 9, 10, 13 1.5 μM, 20, 21, 22 4 μM, seliciclib 10 µM, triptolide 5 nM, DTG 2 nM, EFV 2 nM, 2 days
[2] = tested on: general cellular transcription/translation (R-Luc); test: Dual-reporter assay, R-Luc in bl-DTR cells; assay type: cell-based; details: doxycycline, 24 h
Method: Fig 1 (A) (Top panel) Schematic representation of the primary compound screening using a dual-reporter system. […] (B). […] (Top graphs) bl-DTR cells (1 × 10^4) were treated with twofold serial dilutions of each compound before doxycycline (Dox) addition (final concentration, 50 ng/mL). After 24 h of treatment, the activities of firefly luciferase (F-Luc, red line) and Renilla luciferase (R-Luc, blue line) were determined using the Dual-Glo Luciferase assay system. (Bottom graphs) TZM-bl cells were treated with each indicated compound and subsequently infected with the HIV-1NL4-3 strain at a multiplicity of infection (MOI) of 1. At 48 h after infection, the viral infectivity (purple line) and cell viability (green line) were determined using the Bright-Glo luciferase assay kit and the PrestoBlue Cell Viability Reagent, respectively. […] (C). […] The targeted moieties for the SAR study are marked with dotted-circle lines.
The Tzm-bl-derived dual Tat reporter; TZM-bl/Tat/Rluc (bl-DTR) cells were established from TZM-bl cells using two Dox-inducible lentiviral expression cassettes cloned with Flag-tagged Tat86 and the R-Luc gene, as described in our previous study ([11]). TZM-bl, A3.01, J1.1, and J-Lat 6.3 cells as well as the HIV-1 molecular clone pNL4-3, pNL(AD8), ARV-resistant HIV-1 strains, and HIV-1NL43-IRES-eGFP (pBR43IeG-nef^+, gifted by Dr. Frank Kirchhoff) ([52]) were provided by the National Institute of Health HIV Reagent Program (NIH, Bethesda, MD, USA). HeLa (CCL-2) and 293T (CRL-3216) cell lines were purchased from the American Type Culture Collection (ATCC, Manassas, VA, USA). The bl-DTR, TZM-bl, HeLa, and 293T cells were cultured in Dulbecco’s modified Eagle’s medium supplemented with 1% penicillin–streptomycin and 10% (vol/vol) heat-inactivated fetal bovine serum (all from Gibco-BRL, Gaithersburg, MD, USA), and 1 µg/mL of puromycin and 200 µg/mL of zeocin were additionally supplemented for the bl-DTR cells. PBMCs were purchased from AllCells (Alameda, CA, USA) and cultured as previously described ([12]). The information on ARV-resistant HIV-1 strains was described in previous reports as follows: NNRTI-resistant 12241 and 12243 ([53]); NRTI-resistant 7396, 7406, and 7407 ([54]); INSTI-resistant 11847 and 11849 ([55], [56]); and PI-resistant 11800 and 11803 ([57]). Each molecular HIV-1 clone was transfected to 293T cells, as previously described ([58]), to obtain infectious HIV-1 particles. Virus-containing cell culture supernatants were collected 3 days after transfection, and filtered through a 0.45-µm membrane filter (Millipore Sigma, Burlington, MA, USA) to remove cell debris. The viral titration was performed as described previously ([59]) with some minor modifications. In brief, 1 × 10^4 TZM-bl cells seeded in 96-well plates were infected with 200 µL of virus-containing medium diluted serially twofold. The incubation was for 2 days and the experiment was performed in triplicate; the infection time minimized the virus spread ([59]). The titration of the infectious viral particles was performed with a ß-Gal staining assay using the ßeta-Galactosidase Staining Kit (Mirus Bio, Madison, WI, USA) following the manufacturer’s protocols. In brief, the infected cells were washed with phosphate-buffered saline (PBS) and fixed using a Cell Fixative Working solution. The cells were washed with PBS and stained using the Cell Staining Working Solution containing X-gal. The infected blue-colored cells were counted under a microscope (100× magnification). The infectious virus titer was determined as a mean value of blue-colored cells count × dilution factor and used for determining the multiplicity of infection (MOI) in each infection experiment.

Compound | inhibition of viral-expressed eGFP signal [1] | Relative R-Luc activity at IC50 of F-Luc [2]
CC(C)[C@]12O[C@H]1[C@@H]1O[C@]13[C@]1(O[C@H]1C[C@H]1C4=C(CC[C@@]13C)C(=O)OC4)[C@@H]2O [triptolide, reference compound] | remarkably inhibited | >100
C[C@@H]1CCO[C@H]2Cn3cc(C(=O)NCc4ccc(F)cc4F)c(=O)c(O)c3C(=O)N12 [DTG, dolutegravir, reference compound] | remarkably inhibited | 
Cc1[nH]c2ccc(-c3nnc(SCC(=O)N4CCCCC4)o3)cc2c1C [Compound 9, 2-((5-(2,3-Dimethyl-1H-indol-5-yl)-1,3,4-oxadiazol-2-yl)thio)-1-(piperidin-1-yl)ethan-1-one] | remarkably inhibited | >100
O=C1Nc2ccc(Cl)cc2[C@@](C#CC2CC2)(C(F)(F)F)O1 [EFV, efavirenz, reference compound] | remarkably inhibited | 
Cc1[nH]c2ccc(-c3nnc(SCC(=O)N4CCCC4)o3)cc2c1C [Compound 13, 2-((5-(2,3-Dimethyl-1H-indol-5-yl)-1,3,4-oxadiazol-2-yl)thio)-1-(pyrrolidin-1-yl)ethan-1-one] | remarkably inhibited | >100
